Data taken from patent publication US8802664B2 (Bioproject, priority 2010, dated 2014).
pKi: −log10 of the molar value.

molecular target: T1, human H4 receptor (Homo sapiens, UniProt Q9H3N8); assay: [3H]Histamine binding on membranes of CHO cells stably expressing human H4 receptor; conditions: not given
T1 construct: expressed in transfected cells
Method in brief: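 CHO-hH4 membranes 20 μg/well; buffer 50 mM Tris/HCl, 0.5 mM EDTA, pH 7.4; NSB: 10 μM JNJ 7777120 (BP1.2404); GF/B filtration (PEI-presoaked), 3 ice-cold washes; scintillation counting.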

Ki or IC50 activity class	Compound
< 30 nM	CN1CCC(OC(c2cccc(N3CCC(O)C3)c2)c2nc3ccccc3s2)CC1 (centres unmarked) [Example 406, 1-{3-[benzothiazol-2-yl(1-methylpiperidin-4-yloxy)methyl]phenyl}pyrrolidin-3-ol]
< 30 nM	CN1CCC(OC(c2cccc(C#CCCCNC(=N)N)c2)c2nc3ccccc3s2)CC1 (centres unmarked) [Example 340, N-(5-{3-[benzothiazol-2-yl(1-methylpiperidin-4-yloxy)methyl]phenyl}pent-4-ynyl)guanidine]
< 300 nM	CN1CCC(OC(c2nc3ccccc3s2)c2c(F)cc(Cl)cc2F)CC1 (centres unmarked) [Example 532]
< 1000 nM	CN1CCC(OC(c2cccc(N3CC4CN(C)CC4C3)c2)c2nc3ccccc3s2)CC1 (centres unmarked) [Example 485]
< 30 nM	CN1CCC(OC(c2cccc(SCCCCN)c2)c2nc3ccccc3s2)CC1 (centres unmarked) [Example 359, 4-{3-[benzothiazol-2-yl(1-methylpiperidin-4-yloxy)methyl]phenylsulfanyl}butylamine]
< 300 nM	CCOCCn1c(C(OC2CCN(C)CC2)c2cccc(C#CCCCCN)c2)nc2ccccc21 (centres unmarked) [Example 500]
< 30 nM	CN1CCC(OC(c2cccc(SC(F)(F)F)c2)c2nc3ccccc3[nH]2)CC1 (centres unmarked) [Example 517]
< 30 nM	CN1CCC(OC(c2nc3ccccc3[nH]2)c2cc(O)ccc2F)CC1 (centres unmarked) [Example 487]
< 30 nM	CN1CCC(OC(c2ccc3cc[nH]c3c2)c2nc3ccccc3[nH]2)CC1 (centres unmarked) [Example 550, 2-[(1H-indol-6-yl)(1-methylpiperidin-4-yloxy)methyl]-1H-benzimidazole]
< 300 nM	CC1=C(O)C(=NCCCCC#Cc2ccc(F)c(C(OC3CCN(C)CC3)c3nc4ccccc4[nH]3)c2)CC1 (centres unmarked) [Example 563, 5-(6-{3-[(1H-benzimidazol-2-yl)(1-methylpiperidin-4-yloxy)methyl]-4-fluorophenyl}hex-5-ynylimino)-2-methylcyclopent-1-enol]
< 300 nM	CSCCOc1cccc(C(OC2CCN(C)CC2)c2nc3ccccc3s2)c1 (centres unmarked) [Example 250, 2-{(1-methylpiperidin-4-yloxy)[3-(2-methylsulfanyl-ethoxy)phenyl]methyl}benzothiazole]
< 300 nM	CSCc1cccc(C(OC2CCN(C)CC2)c2nc3ccccc3[nH]2)c1 (centres unmarked) [Example 528, 2-[(1-methylpiperidin-4-yloxy)(3-methylsulfanylmethylphenyl)methyl]-1H-benzimidazole]
< 300 nM	CN1CCC(NC(c2cccc(OCCOc3ccccc3)c2)c2nc3ccccc3[nH]2)CC1 (centres unmarked) [Example 106, {(1H-benzimidazol-2-yl)[3-(2-phenoxyethoxy)phenyl]methyl}(1-methylpiperidin-4-yl)amine]
< 300 nM	CN1CCC(OC(c2cccc(C3=CCN(C(=N)N)CC3)c2)c2nc3ccccc3[nH]2)CC1 (centres unmarked) [Example 353, 4-{3-[(1H-benzimidazol-2-yl)(1-methylpiperidin-4-yloxy)methyl]phenyl}-3,6-dihydro-2H-pyridine-1-carboxamidine]
< 300 nM	CN1CCC(OC(c2cccc(CCCCN)c2)c2nc3ccccc3[nH]2)CC1 (centres unmarked) [Example 293, 4-{3-[(1H-benzimidazol-2-yl)(1-methylpiperidin-4-yloxy)methyl]phenyl}butylamine]
< 30 nM	CN1CCC(OC(c2cccc(OCc3cccc(C(F)(F)F)c3)c2)c2nc3ccccc3s2)CC1 (centres unmarked) [Example 187, 2-{(1-methylpiperidin-4-yloxy)[3-(3-trifluoromethyl-benzyloxy)phenyl]methyl}benzothiazole]
< 300 nM	CN1CCC(NC(c2cccc(I)c2)c2nc3ccccc3s2)CC1 (centres unmarked) [Example 48, [benzothiazol-2-yl(3-iodophenyl)methyl](1-methylpiperidin-4-yl)amine]
< 300 nM	CN1CCC(OC(c2cccc(OCCN3CCNCC3)c2)c2nc3ccccc3s2)CC1 (centres unmarked) [Example 330, 2-{(1-methylpiperidin-4-yloxy)[3-(2-piperazin-1-yl-ethoxy)phenyl]methyl}benzothiazole]
< 300 nM	CN1CCC(OC(c2cccc(SCCCCCCNC(=N)N)c2)c2nc3ccccc3[nH]2)CC1 (centres unmarked) [Example 458]
< 300 nM	CN1CCC(OC(c2cccc(OCc3cccnc3)c2)c2nc3ccccc3s2)CC1 (centres unmarked) [Example 284, 2-{(1-methylpiperidin-4-yloxy)[3-(pyridin-3-ylmethoxy)phenyl]methyl}benzothiazole]
< 30 nM	CN1CCC(COC(c2cccc(Br)c2)c2nc3ccccc3s2)C1 (single isomer, unassigned) [Example 464]

Ki or IC50 activity class	Compound
< 30 nM	CN1CCC(OC(c2cccc(SCCCCN)c2)c2nc3ccccc3[nH]2)CC1 (centres unmarked) [Example 326, 4-{3-[(1H-benzimidazol-2-yl)(1-methylpiperidin-4-yloxy)methyl]phenylsulfanyl}butylamine]
< 30 nM	CN1CCC(OC(c2cccc(OCc3cc(F)ccc3F)c2)c2nc3ccccc3s2)CC1 (centres unmarked) [Example 156, 2-[[3-(2,5-difluorobenzyloxy)phenyl](1-methylpiperidin-4-yloxy)methyl]benzothiazole]
< 300 nM	CCn1c(C(OC2CCN(C)CC2)c2cccc(C#CCCCCN)c2)nc2ccccc21 (centres unmarked) [Example 503]
< 30 nM	CN1CCC(OC(c2cccc(C=CCNC(=N)N)c2)c2nc3ccccc3[nH]2)CC1 (centres unmarked) [Example 499]
< 300 nM	CN1CCC(OC(c2nc3ccccc3[nH]2)c2cc(OC(F)(F)F)ccc2Cl)CC1 (centres unmarked) [Example 524]
< 30 nM	CN1CCC(OC(c2ccc3c(c2)OCCO3)c2nc3ccccc3s2)CC1 (centres unmarked) [Example 10, 2-[(2,3-dihydrobenzo[1,4]dioxin-6-yl)(1-methylpiperidin-4-yloxy)methyl]benzothiazole]
< 300 nM	CN1CCC(OC(c2cccc(N3CCC(N)C3)c2)c2nc3ccccc3s2)CC1 (centres unmarked) [Example 423, 1-{3-[benzothiazol-2-yl(1-methylpiperidin-4-yloxy)methyl]phenyl}pyrrolidin-3-ylamine]
< 300 nM	COC(=O)CSc1cccc(C(OC2CCN(C)CC2)c2nc3ccccc3[nH]2)c1 (centres unmarked) [Example 154, {3-[(1H-benzimidazol-2-yl)(1-methylpiperidin-4-yloxy)methyl]phenylsulfanyl}acetic acid methyl ester]
< 300 nM	CN1CCC(OC(c2cccc(N3CC4CC(N)CC4C3)c2)c2nc3ccccc3s2)CC1 (centres unmarked) [Example 471]
< 300 nM	C=Cc1cccc(C(OC2CCN(C)CC2)c2nc3ccccc3[nH]2)c1 (centres unmarked) [Example 245, 2-[(1-methylpiperidin-4-yloxy)(3-vinyl-phenyl)methyl]-1H-benzimidazole]
< 30 nM	CSc1cccc(C(OC2CCN(C)CC2)c2nc3ccccc3[nH]2)c1 (centres unmarked) [Example 202, 2-[(1-methylpiperidin-4-yloxy)(3-methylsulfanyl-phenyl)methyl]-1H-benzimidazole]
< 30 nM	CN1CCC(OC(c2cccc(OCCCCN)c2)c2nc3ccccc3s2)CC1 (centres unmarked) [Example 301, 4-{3-[benzothiazol-2-yl(1-methylpiperidin-4-yloxy)methyl]phenoxy}butylamine]
< 300 nM	CN1CCC(OC(c2cccc(C#CCCCCN)c2)c2nc3ccccc3n2C)CC1 (centres unmarked) [Example 480, 6-{3-[(1-methyl-1H-benzimidazol-2-yl)(1-methylpiperidin-4-yloxy)methyl]phenyl}hex-5-ynylamine]
< 1000 nM	Nc1ccc(C(OC2CCNCC2)c2nc3ccccc3[nH]2)cc1 (centres unmarked) [Example 456, 4-[(1H-benzimidazol-2-yl)(piperidin-4-yloxy)methyl]aniline]
< 30 nM	CN1CCC(OC(c2cccc(SCCCCN)c2)c2nc3cc(F)c(F)c(F)c3[nH]2)CC1 (centres unmarked) [Example 493]
< 30 nM	CN1CCC(OC(c2cccc(CCCCCN)c2)c2nc3ccccc3s2)CC1 (centres unmarked) [Example 289, 5-{3-[benzothiazol-2-yl(1-methylpiperidin-4-yloxy)methyl]phenyl}pentylamine]
< 300 nM	CN1CCC(OC(c2cccc(-c3cccc(CC#N)c3)c2)c2nc3ccccc3s2)CC1 (centres unmarked) [Example 98, {3′-[benzothiazol-2-yl(1-methylpiperidin-4-yloxy)methyl]biphenyl-3-yl}acetonitrile]
< 300 nM	Cc1ccc(C(OC2CCN(C)CC2)c2nc3ccccc3o2)c(F)c1 (centres unmarked) [Example 545]
< 300 nM	CCSc1ccc(F)c(C(OC2CCN(C)CC2)c2nc3ccccc3[nH]2)c1F (centres unmarked) [Example 520]
< 300 nM	CN1CCC(OC(c2cccc(C#CCCCn3ccnc3)c2)c2nc3ccccc3[nH]2)CC1 (centres unmarked) [Example 409, 2-[[3-(5-imidazol-1-ylpent-1-ynyl)phenyl](1-methylpiperidin-4-yloxy)methyl]-1H-benzimidazole]

Compound	Ki or IC50 activity class
CN1CCC(OC(c2cccc(C#CCCCCNC(=N)NC(=O)OC(C)(C)C)c2)c2nc3ccccc3[nH]2)CC1 (centres unmarked) [Example 345, N-tert-butoxycarbonyl-N′-(6-{3-[(1H-benzimidazol-2-yl)(1-methylpiperidin-4-yloxy)methyl]phenyl}hex-5-ynyl)guanidine]	< 300 nM
CN1CCC(OC(c2cccc(OCCCCN3CCCCC3)c2)c2nc3ccccc3[nH]2)CC1 (centres unmarked) [Example 333, 2-{(1-methylpiperidin-4-yloxy)[3-(4-piperidin-1-yl-butoxy)phenyl]methyl}-1H-benzimidazole]	< 300 nM
CN1CCC(OC(c2cccc(OCCCCN3CCOCC3)c2)c2nc3ccccc3[nH]2)CC1 (centres unmarked) [Example 332, 2-{(1-methylpiperidin-4-yloxy)[3-(4-morpholin-4-yl-butoxy)phenyl]methyl}-1H-benzimidazole]	< 1000 nM

same assay, conditions: human H4 receptor; evaluated in the GTPγ[35S] assay or in the [3H]histamine binding assay (not stated which per compound); Ki or IC50 class

Compound	Ki or IC50 activity class
4-[benzothiazol-2-yl(3-bromo-phenyl)methoxy]-1,1-dimethylpiperidinium [Example 188]	< 30 nM
CC(C)C(=O)N(CCSc1cccc(C(OC2CCN(C)CC2)c2nc3ccccc3[nH]2)c1)C(=N)N (centres unmarked) [Example 478]	< 300 nM

same assay, conditions: read-out: Activity (Ki or IC50)

Compound	pKi
CN1CCC(OC(c2cccc(SCC3(CCO)CC3)c2)c2nc3ccccc3[nH]2)CC1 (centres unmarked) [Example 257]	> 6.00
